≈ marks a conversion by molar mass, not a printed value. Read-outs that look alike come from different tables or passages of the source.
Key:
Format in all cases: cell-based
[1] = test system: Staphylococcus aureus 43300 (MRSA); assay: microbe, parasite or virus in culture; settings: 24 h, read-out: Minimum Inhibitory Concentration, MIC
[2] = test system: Enterococcus faecalis 583 (VRE); assay: microbe, parasite or virus in culture; settings: 24 h, read-out: Minimum Inhibitory Concentration, MIC
[3] = test system: Enterococcus faecalis 1513 (VRE); assay: microbe, parasite or virus in culture; settings: 24 h, read-out: Minimum Inhibitory Concentration, MIC
[4] = test system: Streptococcus pneumoniae M2; assay: microbe, parasite or virus in culture; settings: 37° C., 24 h, read-out: Minimum Inhibitory Concentration, MIC
[5] = test system: Streptococcus pneumoniae 6301; assay: microbe, parasite or virus in culture; settings: 37° C., 24 h, read-out: Minimum Inhibitory Concentration, MIC
Bacillus subtilis 168 = assay: microbe, parasite or virus in culture; settings: 37° C., 24 h, read-out: Minimum Inhibitory Concentration, MIC
Streptococcus 10342 = assay: MIC broth microdilution; settings: 37° C., 24 h, read-out: Minimum Inhibitory Concentration, MIC
[6] = test system: Streptococcus pneumoniae 62; assay: microbe, parasite or virus in culture; settings: 37° C., 24 h, read-out: Minimum Inhibitory Concentration, MIC
[7] = test system: Enterococcus faecalis 51299; assay: microbe, parasite or virus in culture; settings: Enterococcus faecalis, 51299, 24 h, read-out: Minimum Inhibitory Concentration, MIC
[8] = test system: Staphylococcus aureus 29231; assay: microbe, parasite or virus in culture; settings: 37° C., 24 h, read-out: Minimum Inhibitory Concentration, MIC
[9] = test system: Enterococcus faecalis 19433; assay: microbe, parasite or virus in culture; settings: 37° C., 24 h, read-out: Minimum Inhibitory Concentration, MIC
Bacillus cereus 246 = assay: microbe, parasite or virus in culture; settings: 37° C., 24 h, read-out: Minimum Inhibitory Concentration, MIC
[10] = test system: Streptococcus pneumoniae 10351; assay: microbe, parasite or virus in culture; settings: 37° C., 24 h, read-out: Minimum Inhibitory Concentration, MIC
[11] = test system: Staphylococcus aureus 705 (MRSA); assay: microbe, parasite or virus in culture; settings: 24 h, read-out: Minimum Inhibitory Concentration, MIC
[12] = test system: Enterococcus faecalis F2518 (VRE); assay: microbe, parasite or virus in culture; settings: 24 h, read-out: Minimum Inhibitory Concentration, MIC
[13] = test system: Enterococcus fecal F631 (VRE); assay: organism not typed; settings: 24 h, read-out: Minimum Inhibitory Concentration, MIC
[14] = test system: Enterococcus faecalis 29212; assay: microbe, parasite or virus in culture; settings: 37° C., 24 h, read-out: Minimum Inhibitory Concentration, MIC
Pyogenic Streptococcus = assay: microbe, parasite or virus in culture; settings: 37° C., 24 h, read-out: Minimum Inhibitory Concentration, MIC
[15] = test system: Staphylococcus aureus 703 (MRSA); assay: microbe, parasite or virus in culture; settings: 24 h, read-out: Minimum Inhibitory Concentration, MIC
MIC broth microdilution = settings: Microorganism 33, Dermatophytosis; 37° C., 24 h; read-out: Minimum Inhibitory Concentration, MIC
[16] = test system: Corynebacterium diphtheriae; assay: microbe, parasite or virus in culture; settings: 37° C., 24 h, read-out: Minimum Inhibitory Concentration, MIC
Clostridium perfringens = assay: microbe, parasite or virus in culture; settings: 24 h, read-out: Minimum Inhibitory Concentration, MIC
[17] = test system: Streptococcus pneumoniae 6303 (PRSP); assay: microbe, parasite or virus in culture; settings: 24 h, read-out: Minimum Inhibitory Concentration, MIC
Bacillus anthracis 1 = assay: microbe, parasite or virus in culture; settings: Bacillus anthracis, 1, 24 h, read-out: Minimum Inhibitory Concentration, MIC
green Streptococcus 1009 = assay: microbe, parasite or virus in culture; settings: 37° C., 24 h, read-out: Minimum Inhibitory Concentration, MIC
[18] = test system: Streptococcus agalactiae B; assay: microbe, parasite or virus in culture; settings: 37° C., 24 h, read-out: Minimum Inhibitory Concentration, MIC
[19] = test system: Streptococcus bovis 10035; assay: microbe, parasite or virus in culture; settings: Streptococcus equinus, 37° C., 24 h, read-out: Minimum Inhibitory Concentration, MIC
[20] = test system: Staphylococcus aureus 704 (MRSA); assay: microbe, parasite or virus in culture; settings: 24 h, read-out: Minimum Inhibitory Concentration, MIC
Oral candidiasis = assay: MIC broth microdilution; settings: Microorganism 32, Oral candidiasis; 37° C., 24 h; read-out: Minimum Inhibitory Concentration, MIC
Clostridium tetani = assay: microbe, parasite or virus in culture; settings: 24 h
Bacillus cereus 2 = assay: microbe, parasite or virus in culture; settings: 37° C., 24 h, read-out: Minimum Inhibitory Concentration, MIC
Bacillus subtilis 82 = assay: microbe, parasite or virus in culture; settings: 37° C., 24 h, read-out: Minimum Inhibitory Concentration, MIC
Gram-positive Bacteria = settings: the majority of Bacillus cereus, Bacillus subtilis and Enterococcus faecalis
[21] = read-out: Minimum Inhibitory Concentration, MIC, Microorganism 29, Clostridium tetani, 37° C.
[22] = read-out: Minimum Inhibitory Concentration, MIC, Microorganism 30, Clostridium tetani (second line of that name), 37° C.

| Compound | MIC [1] | MIC [2] | MIC [3] | MIC [4] | MIC [5] | MIC (Bacillus subtilis 168) | MIC (Streptococcus 10342) | MIC [6] | MIC [7] | MIC [8] | MIC [9] | MIC (Bacillus cereus 246) | MIC [10] | MIC [11] | MIC [12] | MIC [13] | MIC [14] | MIC (Pyogenic Streptococcus) | MIC [15] | MIC (MIC broth microdilution) | also measured |
| --- | --- | --- | --- | --- | --- | --- | --- | --- | --- | --- | --- | --- | --- | --- | --- | --- | --- | --- | --- | --- | --- |
| CCc1nn2c(=O)c(C)c(-c3ccc(C(F)(F)F)cc3)[nH]c2c1-c1ccc(Cl)cc1Cl [Compound 23] | 120 µM (≈ 56.2 µg/mL) | 132 µM (≈ 61.3 µg/mL) | 152 µM (≈ 71 µg/mL) | 200 µM (≈ 93.4 µg/mL) | 170 µM (≈ 79.4 µg/mL) | 101 µM (≈ 47.2 µg/mL) | 123 µM (≈ 57.4 µg/mL) | 160 µM (≈ 74.8 µg/mL) | 130 µM (≈ 60.8 µg/mL) | 282 µM (≈ 131 µg/mL) | 140 µM (≈ 65.4 µg/mL) | 200 µM (≈ 93.4 µg/mL) | 155 µM (≈ 72.4 µg/mL) | 150 µM (≈ 70 µg/mL) | 215 µM (≈ 100 µg/mL) | 80.5 µM (≈ 37.5 µg/mL) | 220 µM (≈ 103 µg/mL) | 231 µM (≈ 108 µg/mL) | 131 µM (≈ 60.9 µg/mL) | 56.1 µM (≈ 26.2 µg/mL) | MIC [16]: 162 µM (≈ 75.3 µg/mL); MIC (Clostridium perfringens): 30.6 µM (≈ 14.3 µg/mL); MIC [17]: 231 µM (≈ 108 µg/mL); MIC (Bacillus anthracis 1): 166 µM (≈ 77.6 µg/mL); MIC (green Streptococcus 1009): 210 µM (≈ 98.1 µg/mL); MIC [18]: 200 µM (≈ 93.5 µg/mL); MIC [19]: 153 µM (≈ 71.3 µg/mL); MIC [20]: 180 µM (≈ 84 µg/mL); MIC (Oral candidiasis): 122 µM (≈ 56.9 µg/mL); MIC (Clostridium tetani; [21]): 80.2 µM (≈ 37.4 µg/mL); MIC (Clostridium tetani; [22]): 50.2 µM (≈ 23.4 µg/mL); MIC (Bacillus cereus 2): 110 µM (≈ 51.5 µg/mL); MIC (Bacillus subtilis 82): 110 µM (≈ 51.4 µg/mL) |
| CCc1nn2c(=O)cc(-c3ccc(C#N)cc3)[nH]c2c1-c1ccc(Cl)cc1Cl [Compound 5] | 213 µM (≈ 87.3 µg/mL) | 32.1 µM (≈ 13.1 µg/mL) | 35.2 µM (≈ 14.4 µg/mL) | 0.04 µM (≈ 0.0164 µg/mL) | 0.3 µM (≈ 0.123 µg/mL) | 0.12 µM (≈ 0.0491 µg/mL) | 1.33 µM (≈ 0.544 µg/mL) | 10.5 µM (≈ 4.3 µg/mL) | 0.3 µM (≈ 0.123 µg/mL) | 5.31 µM (≈ 2.17 µg/mL) | 2.01 µM (≈ 0.823 µg/mL) | 0.3 µM (≈ 0.123 µg/mL) | 1.25 µM (≈ 0.512 µg/mL) | 123 µM (≈ 50.4 µg/mL) | 31.3 µM (≈ 12.8 µg/mL) | 19.2 µM (≈ 7.86 µg/mL) | 0.16 µM (≈ 0.0655 µg/mL) | 20.1 µM (≈ 8.23 µg/mL) | 135 µM (≈ 55.4 µg/mL) | 33.5 µM (≈ 13.7 µg/mL) | inhibition of growth (conclusion from MICs) (Gram-positive Bacteria): significantly inhibited the growth; MIC [16]: 26.1 µM (≈ 10.7 µg/mL); MIC (Clostridium perfringens): 55.3 µM (≈ 22.6 µg/mL); MIC [17]: 105 µM (≈ 43.1 µg/mL); MIC (Bacillus anthracis 1): 52.4 µM (≈ 21.4 µg/mL); MIC (green Streptococcus 1009): 0.31 µM (≈ 0.127 µg/mL); MIC [18]: 0.16 µM (≈ 0.0655 µg/mL); MIC [19]: 2.01 µM (≈ 0.823 µg/mL); MIC [20]: 150 µM (≈ 61.5 µg/mL); MIC (Oral candidiasis): 52.1 µM (≈ 21.3 µg/mL); MIC (Clostridium tetani; [21]): 50.3 µM (≈ 20.6 µg/mL); MIC (Clostridium tetani; [22]): 23.2 µM (≈ 9.5 µg/mL); MIC (Bacillus cereus 2): 10.5 µM (≈ 4.3 µg/mL); MIC (Bacillus subtilis 82): 0.04 µM (≈ 0.0164 µg/mL) |
